# pEC50: −log10 of the molar value. Active and inactive are the calls of the source. The rule behind the calls is not given here.
# Tested on: not listed separately
# Assay: Metabolic stability in human liver microsome assessed as intrinsic clearance
# Assay type: ADME
# Conditions: liver microsomes
row,SMILES,microsomal CLint [µL/min/mg]
1,Fc1ccc(-c2noc(C3CCN(c4cnc5ccccc5c4)CC3)n2)c(Cl)c1,92
2,Fc1ccc(-c2noc(C3CCN(c4cnc5ccc(OC(F)(F)F)cc5c4)CC3)n2)c(Cl)c1,28

# Target: T1, Cannabinoid receptor 2 (Homo sapiens, UniProt P34972)
# Assay: Agonist activity at human CB2 receptor assessed as inhibition of forskolin-induced increase in intracellular cAMP
# Assay type: functional, cell-based
# Conditions: not given
# T1 sequence (P34972 whole entry): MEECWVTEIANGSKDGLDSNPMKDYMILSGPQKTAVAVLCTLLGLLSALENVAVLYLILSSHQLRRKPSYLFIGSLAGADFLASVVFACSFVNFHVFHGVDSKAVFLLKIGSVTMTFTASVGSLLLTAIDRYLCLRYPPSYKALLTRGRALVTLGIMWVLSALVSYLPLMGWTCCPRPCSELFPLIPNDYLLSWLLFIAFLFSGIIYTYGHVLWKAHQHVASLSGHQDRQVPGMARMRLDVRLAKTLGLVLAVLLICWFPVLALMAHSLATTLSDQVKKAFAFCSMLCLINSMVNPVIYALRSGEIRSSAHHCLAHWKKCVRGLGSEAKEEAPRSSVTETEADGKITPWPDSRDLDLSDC
row,SMILES,pEC50
1,Fc1ccc(-c2noc(C3CCN(c4cnc5ccccc5c4)CC3)n2)c(Cl)c1,7.77

# Target: T2, Cannabinoid receptor 1 (Homo sapiens, UniProt P21554)
# Assay: Agonist activity at human CB1 receptor expressed in insect Sf9 cells assessed as effect on Eu-GTP binding
# Conditions: not given
# T2 sequence (P21554 whole entry): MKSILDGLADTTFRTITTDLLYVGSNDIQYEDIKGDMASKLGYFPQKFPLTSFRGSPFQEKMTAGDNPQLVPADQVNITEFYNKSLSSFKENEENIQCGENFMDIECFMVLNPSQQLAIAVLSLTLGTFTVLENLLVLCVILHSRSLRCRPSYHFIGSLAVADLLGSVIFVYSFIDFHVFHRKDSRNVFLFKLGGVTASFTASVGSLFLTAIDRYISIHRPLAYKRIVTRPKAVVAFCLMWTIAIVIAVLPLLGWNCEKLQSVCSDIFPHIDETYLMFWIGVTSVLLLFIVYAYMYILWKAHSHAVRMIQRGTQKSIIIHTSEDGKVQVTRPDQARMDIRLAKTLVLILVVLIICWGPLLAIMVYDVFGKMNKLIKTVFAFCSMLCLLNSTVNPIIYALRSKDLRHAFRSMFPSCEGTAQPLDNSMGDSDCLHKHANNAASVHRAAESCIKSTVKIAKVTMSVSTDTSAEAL
row,SMILES,pEC50
1,Clc1ccc(-c2noc(C3CCN(c4cnc5ccccc5c4)CC3)n2)cc1,5.58
2,Fc1ccc(-c2noc([C@@H]3CCC[C@H]3Nc3cnc4ccccc4c3)n2)c(Cl)c1 (racemic),5.65
3,Fc1ccc(-c2noc(C3CCN(c4cnc5ccccc5c4)CC3)n2)c(Cl)c1,5.52
4,Fc1ccc(-c2noc(C3CCN(c4cnc5ccc(OC(F)(F)F)cc5c4)CC3)n2)c(Cl)c1,6.38

# Target: T2, Cannabinoid receptor 1
# Assay: Agonist activity at human CB1 receptor assessed as inhibition of forskolin-induced increase in intracellular cAMP relative to CP-55940
# Assay type: functional, cell-based
# Conditions: not given
row,SMILES,Emax [%]
1,Fc1ccc(-c2noc(C3CCN(c4cnc5ccccc5c4)CC3)n2)c(Cl)c1,17

# Target: T1, Cannabinoid receptor 2
# Assay: Agonist activity at human CB2 receptor assessed as inhibition of forskolin-induced increase in intracellular cAMP relative to CP-55940
# Assay type: functional, cell-based
# Conditions: not given
row,SMILES,Emax [%]
1,Fc1ccc(-c2noc(C3CCN(c4cnc5ccccc5c4)CC3)n2)c(Cl)c1,95

# Target: T1, Cannabinoid receptor 2
# Assay: Agonist activity at human CB2 receptor expressed in insect Sf9 cells assessed as effect on Eu-GTP binding
# Conditions: not given
row,SMILES,pEC50
1,CC(C)c1noc(C2CCN(c3cnc4ccccc4c3)CC2)n1,5.84
2,Fc1ccc(-c2noc(C3CCN(c4ccnc5ccccc45)CC3)n2)c(Cl)c1,5.54
3,Fc1ccc(-c2noc(C3CCN(c4ccc(Cl)c(C(F)(F)F)c4)CC3)n2)c(Cl)c1,6.42
4,c1ccc2ncc(N3CCC(c4nc(-c5ccncc5)no4)CC3)cc2c1,6.50
5,Clc1ccc(-c2noc(C3CCN(c4cnc5ccccc5c4)CC3)n2)cc1,5.75
6,O=C(NCCc1nc(-c2ccc(F)cc2Cl)no1)c1cnc2ccccc2c1,5.81
7,Fc1ccc(-c2noc([C@H]3CC[C@@H](Nc4cnc5ccccc5c4)C3)n2)c(Cl)c1 (racemic),5.80
8,Fc1ccccc1-c1noc(C2CCN(c3cnc4ccccc4c3)CC2)n1,5.81
9,CC(C)n1ccc2cc(N3CCC(c4nc(-c5ccc(F)cc5Cl)no4)CC3)cnc21,6.47
10,Fc1ccc(-c2noc([C@@H]3CCC[C@H]3Nc3cnc4ccccc4c3)n2)c(Cl)c1 (racemic),6.33
11,Fc1ccc(-c2noc(C3CCN(c4cnc5ccccc5c4)CC3)n2)c(Cl)c1,7.05
12,Fc1ccc(-c2noc(C3CCN(c4cnc5ccc(OC(F)(F)F)cc5c4)CC3)n2)c(Cl)c1,8.52

# Tested on: not listed separately
# Assay: Metabolic stability in rat liver microsome assessed as intrinsic clearance
# Assay type: ADME
# Conditions: liver microsomes
row,SMILES,microsomal CLint [µL/min/mg]
1,Fc1ccc(-c2noc(C3CCN(c4cnc5ccccc5c4)CC3)n2)c(Cl)c1,80
2,Fc1ccc(-c2noc(C3CCN(c4cnc5ccc(OC(F)(F)F)cc5c4)CC3)n2)c(Cl)c1,18

# Target: T1, Cannabinoid receptor 2
# Assay: Agonist activity at human CB2 receptor expressed in insect Sf9 cells assessed as effect on Eu-GTP binding relative to CP-55940
# Conditions: not given
row,SMILES,Emax [%]
1,CC(C)c1noc(C2CCN(c3cnc4ccccc4c3)CC2)n1,38
2,Fc1ccc(-c2noc(C3CCN(c4ccnc5ccccc45)CC3)n2)c(Cl)c1,35
3,Fc1ccc(-c2noc(C3CCN(c4ccc(Cl)c(C(F)(F)F)c4)CC3)n2)c(Cl)c1,93
4,c1ccc2ncc(N3CCC(c4nc(-c5ccncc5)no4)CC3)cc2c1,53
5,O=C(O)CCc1nc(-c2ccc(F)cc2Cl)no1,10
6,Clc1ccc(-c2noc(C3CCN(c4cnc5ccccc5c4)CC3)n2)cc1,26
7,O=C(NCCc1nc(-c2ccc(F)cc2Cl)no1)c1cnc2ccccc2c1,87
8,Fc1ccc(-c2noc([C@H]3CC[C@@H](Nc4cnc5ccccc5c4)C3)n2)c(Cl)c1 (racemic),77
9,Fc1ccccc1-c1noc(C2CCN(c3cnc4ccccc4c3)CC2)n1,89
10,CC(C)n1ccc2cc(N3CCC(c4nc(-c5ccc(F)cc5Cl)no4)CC3)cnc21,88
11,Fc1ccc(-c2noc([C@@H]3CCC[C@H]3Nc3cnc4ccccc4c3)n2)c(Cl)c1 (racemic),73
12,Fc1ccc(-c2noc(C3CCN(c4cnc5ccccc5c4)CC3)n2)c(Cl)c1,101
13,Fc1ccc(-c2noc(C3CCN(c4cnc5ccc(OC(F)(F)F)cc5c4)CC3)n2)c(Cl)c1,110

# Target: T1, Cannabinoid receptor 2
# Assay: Agonist activity at human CB2 receptor expressed in insect Sf9 cells assessed as effect on Eu-GTP binding at 10 uM
# Conditions: not given
row,SMILES,Activity
1,O=C(O)CCc1nc(-c2ccc(F)cc2Cl)no1,inactive

# Target: T2, Cannabinoid receptor 1
# Assay: Agonist activity at human CB1 receptor assessed as inhibition of forskolin-induced increase in intracellular cAMP
# Assay type: functional, cell-based
# Conditions: not given
row,SMILES,pEC50
1,Fc1ccc(-c2noc(C3CCN(c4cnc5ccccc5c4)CC3)n2)c(Cl)c1,< 6.00

# Organism: Homo sapiens
# Assay: Selectivity for human CB2 receptor over human CB1 receptor by on Eu-GTP binding assay
# Conditions: not given
row,SMILES,Selectivity
1,O=C(O)CCc1nc(-c2ccc(F)cc2Cl)no1,> 200
2,O=C(NCCc1nc(-c2ccc(F)cc2Cl)no1)c1cnc2ccccc2c1,> 200

# Target: T2, Cannabinoid receptor 1
# Assay: Agonist activity at human CB1 receptor expressed in insect Sf9 cells assessed as effect on Eu-GTP binding relative to CP-55940
# Conditions: not given
row,SMILES,Emax [%]
1,CC(C)c1noc(C2CCN(c3cnc4ccccc4c3)CC2)n1,8
2,Fc1ccc(-c2noc(C3CCN(c4ccnc5ccccc45)CC3)n2)c(Cl)c1,2
3,Fc1ccc(-c2noc(C3CCN(c4ccc(Cl)c(C(F)(F)F)c4)CC3)n2)c(Cl)c1,2
4,c1ccc2ncc(N3CCC(c4nc(-c5ccncc5)no4)CC3)cc2c1,8
5,O=C(O)CCc1nc(-c2ccc(F)cc2Cl)no1,0.3
6,Clc1ccc(-c2noc(C3CCN(c4cnc5ccccc5c4)CC3)n2)cc1,26
7,O=C(NCCc1nc(-c2ccc(F)cc2Cl)no1)c1cnc2ccccc2c1,-1
8,Fc1ccc(-c2noc([C@H]3CC[C@@H](Nc4cnc5ccccc5c4)C3)n2)c(Cl)c1 (racemic),4
9,Fc1ccccc1-c1noc(C2CCN(c3cnc4ccccc4c3)CC2)n1,8
10,CC(C)n1ccc2cc(N3CCC(c4nc(-c5ccc(F)cc5Cl)no4)CC3)cnc21,13
11,Fc1ccc(-c2noc([C@@H]3CCC[C@H]3Nc3cnc4ccccc4c3)n2)c(Cl)c1 (racemic),39
12,Fc1ccc(-c2noc(C3CCN(c4cnc5ccccc5c4)CC3)n2)c(Cl)c1,36
13,Fc1ccc(-c2noc(C3CCN(c4cnc5ccc(OC(F)(F)F)cc5c4)CC3)n2)c(Cl)c1,33

# Target: T2, Cannabinoid receptor 1
# Assay: Agonist activity at human CB1 receptor expressed in insect Sf9 cells assessed as effect on Eu-GTP binding at 10 uM
# Conditions: not given
row,SMILES,Activity
1,CC(C)c1noc(C2CCN(c3cnc4ccccc4c3)CC2)n1,inactive
2,Fc1ccc(-c2noc(C3CCN(c4ccnc5ccccc45)CC3)n2)c(Cl)c1,inactive
3,Fc1ccc(-c2noc(C3CCN(c4ccc(Cl)c(C(F)(F)F)c4)CC3)n2)c(Cl)c1,inactive
4,c1ccc2ncc(N3CCC(c4nc(-c5ccncc5)no4)CC3)cc2c1,inactive
5,O=C(O)CCc1nc(-c2ccc(F)cc2Cl)no1,inactive
6,O=C(NCCc1nc(-c2ccc(F)cc2Cl)no1)c1cnc2ccccc2c1,inactive
7,Fc1ccc(-c2noc([C@H]3CC[C@@H](Nc4cnc5ccccc5c4)C3)n2)c(Cl)c1 (racemic),inactive
8,Fc1ccccc1-c1noc(C2CCN(c3cnc4ccccc4c3)CC2)n1,inactive
9,CC(C)n1ccc2cc(N3CCC(c4nc(-c5ccc(F)cc5Cl)no4)CC3)cnc21,inactive

# Reference: ChEMBL document CHEMBL1155906, “Structural modifications of N-arylamide oxadiazoles: Identification of N-arylpiperidine oxadiazoles as potent and selective agonists of CB2” (Bioorg Med Chem Lett, 2008)
